What was measured:
[1] = tested on: MCF7; test: Antitumor activity against human MCF7 cells; assay type: functional
[2] = tested on: NCI/ADR-RES; test: Antitumor activity against human NCI/ADR-RES cells; assay type: functional
[3] = Antitumor activity against human […] cells; assay type: functional
[4] = Antitumor activity against human HS 578T cells; assay type: functional
[5] = tested on: CCRF-CEM; test: Antitumor activity against human CCRF-CEM cells; assay type: functional
[6] = Antitumor activity against human HL60 (TB) cells; assay type: functional, HL-60(TB); conditions: HL-60
[7] = tested on: K562; test: Antitumor activity against human K562 cells; assay type: functional
[8] = tested on: MOLT-4; test: Antitumor activity against human MOLT4 cells; assay type: functional
[9] = tested on: RPMI-8226; test: Antitumor activity against human RPMI8226 cells; assay type: functional
[10] = tested on: SR; test: Antitumor activity against human SR cells; assay type: functional
[11] = tested on: A549; test: Antitumor activity against human A549 cells; assay type: functional
[12] = tested on: EKVX; test: Antitumor activity against human EKVX cells; assay type: functional
[13] = tested on: HOP-62; test: Antitumor activity against human HOP62 cells; assay type: functional
[14] = tested on: HOP-92; test: Antitumor activity against human HOP92 cells; assay type: functional
[15] = tested on: NCI-H226; test: Antitumor activity against human NCI-H226 cells; assay type: functional
[16] = tested on: NCI-H23; test: Antitumor activity against human NCI-H23 cells; assay type: functional
[17] = Antitumor activity against human NCI-H322 cells; assay type: functional
[18] = tested on: NCI-H460; test: Antitumor activity against human NCI-H460 cells; assay type: functional
[19] = tested on: NCI-H522; test: Antitumor activity against human NCI-H522 cells; assay type: functional
[20] = tested on: COLO 205; test: Antitumor activity against human COLO205 cells; assay type: functional
[21] = tested on: HCC 2998; test: Antitumor activity against human HCC2998 cells; assay type: functional
[22] = tested on: HCT-116; test: Antitumor activity against human HCT116 cells; assay type: functional
[23] = tested on: HCT-15; test: Antitumor activity against human HCT15 cells; assay type: functional
[24] = tested on: HT-29; test: Antitumor activity against human HT29 cells; assay type: functional
[25] = tested on: KM12; test: Antitumor activity against human KM12 cells; assay type: functional
[26] = tested on: SW-620; test: Antitumor activity against human SW620 cells; assay type: functional
[27] = tested on: SF-268; test: Antitumor activity against human SF268 cells; assay type: functional
[28] = tested on: SF-295; test: Antitumor activity against human SF295 cells; assay type: functional
[29] = tested on: SF-539; test: Antitumor activity against human SF539 cells; assay type: functional
[30] = tested on: SNB-19; test: Antitumor activity against human SNB19 cells; assay type: functional
[31] = tested on: SNB-75; test: Antitumor activity against human SNB75 cells; assay type: functional
[32] = tested on: U-251; test: Antitumor activity against human U251 cells; assay type: functional
[33] = tested on: LOX IMVI; test: Antitumor activity against human LOX IMVI cells; assay type: functional
[34] = tested on: Malme-3M; test: Antitumor activity against human MALME-3M cells; assay type: functional
[35] = tested on: SK-MEL-28; test: Antitumor activity against human SK-MEL-28 cells; assay type: functional
[36] = tested on: SK-MEL-5; test: Antitumor activity against human SK-MEL-5 cells; assay type: functional
[37] = tested on: UACC-257; test: Antitumor activity against human UACC257 cells; assay type: functional
[38] = tested on: UACC-62; test: Antitumor activity against human UACC62 cells; assay type: functional
[39] = tested on: IGROV-1; test: Antitumor activity against human IGROV1 cells; assay type: functional
[40] = tested on: OVCAR-3; test: Antitumor activity against human OVCAR-3 cells; assay type: functional
[41] = tested on: OVCAR-4; test: Antitumor activity against human OVCAR4 cells; assay type: functional
[42] = tested on: OVCAR-5; test: Antitumor activity against human OVCAR5 cells; assay type: functional
[43] = tested on: OVCAR-8; test: Antitumor activity against human OVCAR8 cells; assay type: functional
[44] = tested on: SK-OV-3; test: Antitumor activity against human SK-OV-3 cells; assay type: functional
[45] = tested on: 786-0; test: Antitumor activity against human 786-0 cells; assay type: functional
[46] = tested on: A498; test: Antitumor activity against human A498 cells; assay type: functional
[47] = tested on: ACHN; test: Antitumor activity against human ACHN cells; assay type: functional
[48] = tested on: CAKI-1; test: Antitumor activity against human CAKI-1 cells; assay type: functional
[49] = tested on: RXF 393; test: Antitumor activity against human RXF393 cells; assay type: functional
[50] = tested on: SN12C; test: Antitumor activity against human SN12C cells; assay type: functional
[51] = tested on: TK-10; test: Antitumor activity against human TK10 cells; assay type: functional
[52] = tested on: UO-31; test: Antitumor activity against human UO31 cells; assay type: functional
[53] = tested on: PC-3; test: Antitumor activity against human PC3 cells; assay type: functional
[54] = tested on: DU-145; test: Antitumor activity against human DU145 cells; assay type: functional
[55] = tested on: MDA-MB-435; test: Antitumor activity against human MDA-MB-435 cells; assay type: functional
[56] = tested on: BT-549; test: Antitumor activity against human BT549 cells; assay type: functional
[57] = tested on: NCI-H522; test: Growth inhibition of human NCI-H522 cells at 1 uM; assay type: functional
[58] = tested on: NCI-H522; test: Growth inhibition of human NCI-H522 cells at 10 uM; assay type: functional
[59] = tested on: IGROV-1; test: Growth inhibition of human IGROV1 cells at 10 nM; assay type: functional
[60] = tested on: IGROV-1; test: Growth inhibition of human IGROV1 cells at 0.1 uM; assay type: functional
[61] = tested on: IGROV-1; test: Growth inhibition of human IGROV1 cells at 1 uM; assay type: functional
[62] = tested on: IGROV-1; test: Growth inhibition of human IGROV1 cells at 10 uM; assay type: functional

OC[C@H]1C[C@](O)(c2ccccc2Cl)[C@@H](c2ccccc2Cl)O1 (relative stereo)
GI50 [1]: 26.9 µM
GI50 [2]: 29.5 µM
GI50 [3]: 18.6 µM
GI50 [4]: 16.2 µM
GI50 [5]: 27.5 µM
GI50 [6]: 16.6 µM
GI50 [7]: 20 µM
GI50 [8]: 17 µM
GI50 [9]: 21.9 µM
GI50 [10]: 17 µM
GI50 [11]: 22.9 µM
GI50 [12]: 19.1 µM
GI50 [13]: 31.6 µM
GI50 [14]: 22.4 µM
GI50 [15]: 26.3 µM
GI50 [16]: 25.7 µM
GI50 [17]: 32.4 µM
GI50 [18]: 20 µM
GI50 [19]: 13.5 µM
GI50 [20]: 14.8 µM
GI50 [21]: 29.5 µM
GI50 [22]: 25.7 µM
GI50 [23]: 28.2 µM
GI50 [24]: 17 µM
GI50 [25]: 25.7 µM
GI50 [26]: 30.2 µM
GI50 [27]: 24 µM
GI50 [28]: 26.9 µM
GI50 [29]: 22.4 µM
GI50 [30]: 31.6 µM
GI50 [31]: 20.9 µM
GI50 [32]: 28.2 µM
GI50 [33]: 17 µM
GI50 [34]: 21.4 µM
GI50 [35]: 26.3 µM
GI50 [36]: 17 µM
GI50 [37]: 19.1 µM
GI50 [38]: 16.6 µM
GI50 [39]: 11 µM
GI50 [40]: 19.5 µM
GI50 [41]: 24.5 µM
GI50 [42]: 22.9 µM
GI50 [43]: 26.3 µM
GI50 [44]: 23.4 µM
GI50 [45]: 26.3 µM
GI50 [46]: 22.9 µM
GI50 [47]: 27.5 µM
GI50 [48]: 32.4 µM
GI50 [49]: 18.6 µM
GI50 [50]: 20.9 µM
GI50 [51]: 20.9 µM
GI50 [52]: 22.9 µM
GI50 [53]: 24 µM
GI50 [54]: 26.9 µM
GI50 [55]: 16.2 µM
GI50 [56]: 17 µM
inhibition at 1 µM [57]: 27%
inhibition at 10 µM [58]: 36%
inhibition at 0.01 µM [59]: 15%
inhibition at 0.1 µM [60]: 28%
inhibition at 1 µM [61]: 32%
inhibition at 10 µM [62]: 46%

Source: ChEMBL document CHEMBL1143055, “2,3,5-Substituted tetrahydrofurans as cancer chemopreventives. Part 1: synthesis and anti-cancer activities of 5-hydroxymethyl-2,3-diaryl-tetrahydro-furan-3-ols” (2007)
